These results are taken from publication PMC10709440, “High-throughput ligand profile characterization in novel cell lines expressing seven heterologous insect olfactory receptors for the detection of volatile plant biomarkers” (Scientific Reports, 2023).

Where two headings read alike, the source gives them in different places.

One experiment has as its target T1, Drosophila OR98a (Drosophila melanogaster, UniProt Q9VAZ3).
T1 construct: expressed in transfected cells
T1 sequence (Q9VAZ3 1-397): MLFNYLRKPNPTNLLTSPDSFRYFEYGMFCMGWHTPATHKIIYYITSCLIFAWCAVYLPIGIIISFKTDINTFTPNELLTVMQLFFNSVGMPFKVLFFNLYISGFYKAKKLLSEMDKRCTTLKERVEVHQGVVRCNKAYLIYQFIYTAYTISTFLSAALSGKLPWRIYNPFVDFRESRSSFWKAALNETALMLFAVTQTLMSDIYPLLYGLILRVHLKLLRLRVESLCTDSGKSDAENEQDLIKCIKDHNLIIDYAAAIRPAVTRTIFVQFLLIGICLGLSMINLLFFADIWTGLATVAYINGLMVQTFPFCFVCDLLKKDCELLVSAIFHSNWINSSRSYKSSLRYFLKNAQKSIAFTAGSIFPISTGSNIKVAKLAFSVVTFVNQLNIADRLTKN
T1 sequence (Q9VNB5 1-486 partner): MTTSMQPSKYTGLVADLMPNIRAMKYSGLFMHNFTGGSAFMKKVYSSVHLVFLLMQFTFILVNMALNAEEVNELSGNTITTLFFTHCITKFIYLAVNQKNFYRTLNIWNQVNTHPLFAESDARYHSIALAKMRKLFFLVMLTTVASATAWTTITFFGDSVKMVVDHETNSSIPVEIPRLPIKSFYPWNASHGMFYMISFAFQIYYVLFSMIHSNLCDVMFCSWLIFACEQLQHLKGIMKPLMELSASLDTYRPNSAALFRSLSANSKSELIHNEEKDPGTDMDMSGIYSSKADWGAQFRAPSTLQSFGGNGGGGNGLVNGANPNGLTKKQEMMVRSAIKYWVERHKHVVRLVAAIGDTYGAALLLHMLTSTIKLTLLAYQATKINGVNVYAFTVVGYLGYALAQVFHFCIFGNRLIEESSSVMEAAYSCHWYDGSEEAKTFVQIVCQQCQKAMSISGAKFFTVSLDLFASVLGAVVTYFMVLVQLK
The experiment in a line: Calcium ion fluorescence (GCaMP6) assay, OR98a stable HEK293 cell line. It is filed as cell-based. The following applies: for OR98a Average response (VUAA1-normalized): 50 μM VUAA1 = 1; for Average response: average of biological replicates, fraction of VUAA1 response. An outline of the steps:
(§1)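 Responses are VUAA1-normalized ΔF: each VOC-evoked calcium signal, (FMAX−F0)/F0 over 30 s after injection, divided by the same line's mean 50 µM VUAA1 response. Cells were doxycycline-induced HEK293 with GCaMP6 and the cognate Drosophila OR, in HEPES buffer pH 7.3; ligands tested 0.01–100 μM.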

The target in a further experiment is T2, Drosophila OR13a (Drosophila melanogaster, UniProt Q9VXL0).
T2 construct: expressed in transfected cells
T2 sequence (Q9VXL0 1-418): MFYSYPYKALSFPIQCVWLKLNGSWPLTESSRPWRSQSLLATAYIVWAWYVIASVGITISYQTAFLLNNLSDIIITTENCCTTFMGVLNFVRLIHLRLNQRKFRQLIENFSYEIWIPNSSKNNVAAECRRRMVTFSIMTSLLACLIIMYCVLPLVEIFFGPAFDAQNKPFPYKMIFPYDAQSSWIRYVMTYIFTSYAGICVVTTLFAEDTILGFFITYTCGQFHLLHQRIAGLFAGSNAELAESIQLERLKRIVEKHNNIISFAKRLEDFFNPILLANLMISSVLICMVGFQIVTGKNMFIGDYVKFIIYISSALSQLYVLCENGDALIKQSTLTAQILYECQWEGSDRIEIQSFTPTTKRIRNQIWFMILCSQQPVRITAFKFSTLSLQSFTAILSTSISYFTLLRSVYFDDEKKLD
T2 sequence (Q9VNB5 1-486 partner): T1 sequence (Q9VNB5 1-486 partner)
In words: Calcium ion fluorescence (GCaMP6) assay, OR13a stable HEK293 cell line. It is filed as cell-based. An outline of the steps: as §1

Setting [1] is: ligand concentration 1 (unit not given), threshold 0.05, below shown as 0.
The mark [2] stands for this setting: ligand concentration 10 (unit not given), threshold 0.05, below shown as 0.
The mark [3] stands for this setting: ligand concentration 100 (unit not given), threshold 0.05, below shown as 0.
[4] abbreviates: 1 μM VOC, 50 μM VUAA1 = 1, responses not exceeding 0.05 considered 0.
Where [5] appears, read: 10 μM VOC, 50 μM VUAA1 = 1, responses not exceeding 0.05 considered 0.
The mark [6] stands for this setting: 100 μM VOC, 50 μM VUAA1 = 1, responses not exceeding 0.05 considered 0.
Where [7] appears, read: concentration 1, normalized fluorescence change, values below 0.05 threshold given as 0.
[8] abbreviates: concentration 10, normalized fluorescence change, values below 0.05 threshold given as 0.
[9] abbreviates: concentration 100, normalized fluorescence change, values below 0.05 threshold given as 0.
Where [10] appears, read: HEK293, read-out: Average response.
[11] abbreviates: HEK293, read-out: OR98a Average response (VUAA1-normalized).
The mark [12] stands for this setting: ligand concentration 1 (unit not given), 0.05 threshold, values below shown as 0.
Where [13] appears, read: ligand concentration 10 (unit not given), 0.05 threshold, values below shown as 0.
Setting [14] is: ligand concentration 100 (unit not given), 0.05 threshold, values below shown as 0.

`CC(C)=CCC/C(C)=C/CC/C(C)=C/CO` [e,e-farnesol]: the “OR98a Average response (VUAA1-normalized)” value on Drosophila OR98a (1 μM VOC) came out at 0.02; at Drosophila OR98a (10 μM VOC) it was 0.07; at Drosophila OR98a (100 μM VOC), 0.10. In addition, the “OR98a response (VUAA1-normalized response)” value on Drosophila OR98a (VOC concentration 1 μM) is on record as 0.00; at Drosophila OR98a (VOC concentration 10 μM), 0.07; on Drosophila OR98a (VOC concentration 100 μM), 0.10. In addition, the Average response amounted to 0.017 on Drosophila OR98a (cc. 1 µM, OR98a cell line); 0.07 on Drosophila OR98a (cc. 10 µM, OR98a cell line); 0.10 at Drosophila OR98a (cc. 100 µM, OR98a cell line). Also, the “DF norm AVERAGE OR98a” value on Drosophila OR98a (setting [1]) worked out at 0; at Drosophila OR98a (setting [2]), 0.07127; at Drosophila OR98a (setting [3]), 0.09839. Moreover, the figures for the “OR13a Average response (VUAA1-normalized)” value on Drosophila OR13a (setting [4]), on Drosophila OR13a (setting [5]) and on Drosophila OR13a (setting [6]) were 0.00, 0.033 and 0.026, respectively. The “OR13a response (VUAA1-normalized response)” value at Drosophila OR13a (VOC concentration 1 μM), on Drosophila OR13a (VOC concentration 10 μM) and at Drosophila OR13a (VOC concentration 100 μM) was 0.00 in each case. The “DF norm AVERAGE OR13a” value at Drosophila OR13a (setting [1]), on Drosophila OR13a (setting [2]) and on Drosophila OR13a (setting [3]) was 0 each time.

(+)-beta-cedrene: the results for the “OR98a response (VUAA1-normalized response)” value on Drosophila OR98a (VOC concentration 1 μM), on Drosophila OR98a (VOC concentration 10 μM) and at Drosophila OR98a (VOC concentration 100 μM) were 0.0855, 0.06 and 0.06, respectively. In addition, the Average response at Drosophila OR98a (cc. 1 µM, OR98a cell line) stood at 0.0855; at Drosophila OR98a (cc. 10 µM, OR98a cell line) it was 0.06; on Drosophila OR98a (cc. 100 µM, OR98a cell line), 0.06. Also, the “DF norm AVERAGE OR98a” value was found to be 0.08554 at Drosophila OR98a (setting [7]), 0.05985 on Drosophila OR98a (setting [8]) and 0.06078 on Drosophila OR98a (setting [9]). Besides, the “OR13a Average response (VUAA1-normalized)” value on Drosophila OR13a (setting [4]), on Drosophila OR13a (setting [5]) and on Drosophila OR13a (setting [6]) was 0.00 each time. Moreover, the “OR13a response (VUAA1-normalized response)” value on Drosophila OR13a (VOC concentration 1 μM), at Drosophila OR13a (VOC concentration 10 μM) and at Drosophila OR13a (VOC concentration 100 μM) was 0.00 each time. Moreover, the “DF norm AVERAGE OR13a” value at Drosophila OR13a (setting [7]), on Drosophila OR13a (setting [8]) and on Drosophila OR13a (setting [9]) was 0 in each case.

Regarding `CCCCCCCCCCCCCC` [tetradecane], the activation at 1 µM at Drosophila OR98a (setting [10]) was 0%; on Drosophila OR98a (setting [11]), 0%; at Drosophila OR13a (HEK293, read-out: OR13a Average response (VUAA1-normalized), 1 μM VOC, 50 μM VUAA1 = 1, responses not exceeding 0.05 considered 0), 2.63%. The activation at 10 µM at Drosophila OR98a (setting [10]) is 12%; on Drosophila OR98a (setting [11]) it was 12%; at Drosophila OR13a (HEK293, read-out: OR13a Average response (VUAA1-normalized), 10 μM VOC, 50 μM VUAA1 = 1, responses not exceeding 0.05 considered 0), 1.68%. For the same compound, the activation at 100 µM at Drosophila OR98a (setting [10]) worked out at 10%; on Drosophila OR98a (setting [11]) it was 10%; on Drosophila OR13a (HEK293, read-out: OR13a Average response (VUAA1-normalized), 100 μM VOC, 50 μM VUAA1 = 1, responses not exceeding 0.05 considered 0), 0%. Besides, at Drosophila OR98a (OR98a cell line, VOC concentration 1 μM), the “OR98a response (VUAA1-normalized) at 1 μM” value is given as 0.00. The “OR98a response (VUAA1-normalized) at 10 μM” value at Drosophila OR98a (OR98a cell line, VOC concentration 10 μM) is 0.12. The “OR98a response (VUAA1-normalized) at 100 μM” value on Drosophila OR98a (OR98a cell line, VOC concentration 100 μM) came to 0.10. In addition, the figures for the “DF norm AVERAGE OR98a” value at Drosophila OR98a (setting [12]), at Drosophila OR98a (setting [13]) and on Drosophila OR98a (setting [14]) were 0, 0.1151 and 0.09569, respectively. Further, the “OR13a response (VUAA1-normalized) at 1 μM” value on Drosophila OR13a (OR13a cell line, VOC concentration 1 μM) was determined as 0.00. Further, the “OR13a response (VUAA1-normalized) at 10 μM” value at Drosophila OR13a (OR13a cell line, VOC concentration 10 μM) was 0.00. Also, the “OR13a response (VUAA1-normalized) at 100 μM” value at Drosophila OR13a (OR13a cell line, VOC concentration 100 μM) came to 0.00. Also, the “DF norm AVERAGE OR13a” value on Drosophila OR13a (setting [12]), at Drosophila OR13a (setting [13]) and on Drosophila OR13a (setting [14]) was 0 throughout.
